# Assay results from US8809627B2, “Plant isoflavone and isoflavanone O-methyltransferase genes” (The Samuel Roberts Noble Foundation, Inc., priority 2006, dated 2014).
# “Also recorded” adds a separate entry of the source.
# Tests used:
# Assay type in all cases: cell-based, Medicago truncatula
# MtIOMT1 = assay: Expression in elicitor-treated cell cultures: MtIOMT1 transcripts
# Description: (§1) The Affymetrix DNA chip contained 61,200 probe sets: 32,167 M. truncatula EST/mRNA-based and chloroplast gene-based probe sets (TIGR Gene Index version 8, January, 2005, 36,878 unique sequences); 18,733 M. truncatula IMGAG (International Medicago Genome Annotation Group) and phase 2/3 BAC prediction-based probe sets; 1,896 M. sativa EST/mRNA based probe sets; 8,305 Sinorhizobium meliloti gene prediction-based probe sets. For microarray experiments, total RNA was extracted from cell suspension cultures (Suzuki et al., 2005) using TRI Reagent (Molecular Research Center, Inc., Cincinnati, Ohio) and purified using the RNeasy® MinElute Cleanup Kit (Qiagen, Valencia, Calif.), according to the manufacturer's instructions. For all samples, 10 μg of total RNA was used for labeling reactions. Labeling, hybridization and data processing were performed according to the manufacturer's instruction (Affymetrix, Santa Clara, Calif.). For both YE and MeJA treatments, transcript profiles were examined at early (2 h) and late (24 h) time post-elicitation. For each sample point, two biological replicates were included, and the average signal intensities were used to calculate ratio of treatment to its corresponding control. […]
# MtIOMT6 [1] = assay: Microarray analysis of elicitor-treated cell suspension cultures: MtIOMT6 transcripts; details: 2 and 24 hours post-elicitation
# Description: as §1
# IFS genes = assay: Microarray analysis of elicitor-treated cell suspension cultures: IFS transcripts; details: MeJA: 24 h after treatment
# Description: The Affymetrix DNA chip contained 61,200 probe sets: 32,167 M. truncatula EST/mRNA-based and chloroplast gene-based probe sets (TIGR Gene Index version 8, January, 2005, 36,878 unique sequences); 18,733 M. truncatula IMGAG (International Medicago Genome Annotation Group) and phase 2/3 BAC prediction-based probe sets; 1,896 M. sativa EST/mRNA based probe sets; 8,305 Sinorhizobium meliloti gene prediction-based probe sets. For microarray experiments, total RNA was extracted from cell suspension cultures (Suzuki et al., 2005) using TRI Reagent (Molecular Research Center, Inc., Cincinnati, Ohio) and purified using the RNeasy® MinElute Cleanup Kit (Qiagen, Valencia, Calif.), according to the manufacturer's instructions. For all samples, 10 μg of total RNA was used for labeling reactions. Labeling, hybridization and data processing were performed according to the manufacturer's instruction (Affymetrix, Santa Clara, Calif.). For both YE and MeJA treatments, transcript profiles were examined at early (2 h) and late (24 h) time post-elicitation. For each sample point, two biological replicates were included, and the average signal intensities were used to calculate ratio of treatment to its corresponding control.
# MtIOMTs 6-8 are annotated as encoding 2,7,4′-trihydroxyisoflavanone 4′-OMTs. […]
# MtIOMT4 = assay: Microarray analysis of elicitor-treated cell suspension cultures: MtIOMT4 transcripts; details: 2 and 24 hours post-elicitation
# Description: as §1
# MtIOMT2 = assay: RT-PCR analysis of elicitor-treated cell cultures: MtIOMT2
# Protocol: (§2) Infection of M. truncatula with Phoma medicaginis was performed as described (Deavours and Dixon, 2005). RNA was extracted from plant tissues using TRI Reagent (Molecular Research Center, Inc., Cincinnati, Ohio) according to the manufacturer's instructions. For RT-PCR, 2 μg of total RNA was transcribed into cDNA using Ready-To-Go RT-PCR beads (Amersham, Piscataway, N.J.) and oligo-dT primer. Two μl of cDNA was used in each PCR reaction (50 μl total) with Ex-Taq PCR reagents (Takara Bio Inc., Shiga, Japan) and the primers used are listed in Table 1 (SEQ ID NOs:16-29). PCR conditions were 94° C., 5 min; 25-32 cycles of 94° C. for 1 min, 55° C. for 1 min, 72° C. for 1 min; followed by 72° C. for 10 min. PCR products were resolved on a 1% (w/v) TAE-agarose gel and visualized with ethidium bromide.
# (§3) Differential induction of MtIOMTs in response to elicitation was also observed in M. truncatula cell cultures treated with yeast elicitor (YE) or methyl jasmonate (MeJA), which induce different global patterns of genetic re-programming (Suzuki et al., 2005). Changes in IOMT transcripts in elicited cells were inferred from microarray data generated utilizing Affymetrix Medicago genome arrays with 61K probe sets (www.affymetrix.com). […]
# MtIOMT7 = assay: Microarray analysis of elicitor-treated cell suspension cultures: MtIOMT7 transcripts; details: 2 and 24 hours post-elicitation
# Description: as §1
# MtIOMT6 [2] = assay: RT-PCR analysis of elicitor-treated cell cultures: MtIOMT6
# Protocol: as §2, §3
structure (smiles),measurement,setting,value
"CC/C=C\CC1C(=O)CCC1CC(=O)OC (stereo not shown) [MeJA, methyl jasmonate]",Induction of MtIOMT1 transcripts,MtIOMT1,induced
same,"Induction of MtIOMT6 transcripts, treatment vs control",MtIOMT6 [1],massively induced; also recorded: very strongly induced
same,"Change of IFS gene transcripts, treatment vs control",IFS genes,down-regulated; also recorded: consistently reduced
same,"Induction of MtIOMT4 transcripts, treatment vs control",MtIOMT4,down-regulated
same,Induction of MtIOMT2 transcripts,MtIOMT2,strong induction
same,"Induction of MtIOMT7 transcripts, treatment vs control",MtIOMT7,massively induced; also recorded: very strongly induced
same,Induction of MtIOMT6 transcripts,MtIOMT6 [2],strong induction
